These results are taken from patent publication US20240240208A1, “COMPOSITIONS AND METHODS FOR INCREASING EFFICIENCY OF PRECISE EDITING REPAIR” (New York Genome Center, Inc., priority 2021, published 2024).

The structures appear in SMILES notation.

For one data set, the system named is RFC5, TUBA1B, NEDD8, LIG4, POLQ and RAD51 knock-out lines. As to the kind of experiment: HDR levels by cell sorting in gene knock out cell lines treated with DNA-PK inhibitor. The class given is cell-based, human. The settings on record: 2 μM DNA-PK inhibitor in RFC5, TUBA1B. The procedure:
Knock out cell lines of the indicated genes were treated with 2 μM of DNA-PK inhibitor. HDR levels were determined by cell sorting.
The inventors identified regulators of homologous directed repair (HDR) that synergize with inhibition of non-homologous end-joining (NHEJ) and further increase HDR levels in human cells. The inventors targeted all of the 20,000 genes in the human genome using a pair of CRISPR-based screens to identify genes that, upon loss (knock-out) or gain (overexpression), increase precise gene repair. Using a CRISPR inhibition screen, a ranked list of the effect of loss of every human gene on precise gene repair. In a CRISPR activation screen, we produced a ranked list of the effect of gain of every human gene on precise gene repair. Combinatorial effects of multiple gene/drug perturbations on boosting precise gene repair were also examined. […]
To study the efficiency of HDR in human cells we used the green fluorescent protein (GFP) to blue fluorescent protein (BFP) pair, where conversion from GFP to BFP requires editing of 2 nucleotides. […] Efficiency of HDR in cells carrying specific genetic perturbations (genetic inhibition or activation) were identified using fluorescence-activated cell sorting (FACS), followed by guide RNA recovery and quantification using next-generation sequencing (NGS).
HDR levels were determined by cell sorting.
Turning to `O=c1cc(N2CCOCC2)oc2c(-c3cccc4c3sc3ccccc34)cccc12` [NU7441], the HDR levels entry is listed as “significant increase in the HDR levels”.

In another data set the test system is HEK293 DNA-PK KO cells. As to the kind of experiment: MTT cytotoxicity assay after 24 hours drug treatment. The class given is cell-based, human. The following applies: 10, 5, 1, 0.5, 0.1 and 0.01 μM. The procedure:
FIG. 8 is a heat plot showing cytotoxicity after drug treatment. HEK293 DNA-PK KO cells were treated with the noted compounds at 10 μM, 5 μM, 1 μM, 0.5 μM, 0.1 μM, and 0.01 μM in triplicate. After 24 hours an MTT assay was performed.
The same compounds were also tested for cytotoxicity at 10 μM, 5 μM, 1 μM, 0.5 μM, 0.1 μM, and 0.01 μM.
On to `COc1ccc(CCNCc2ccc(OCc3ccc(Cl)nc3)c(OC)c2)cc1OC.Cl` [SBE 13 HCl], for which the “cytotoxicity over DMSO (MTT, viable cells)” value is given as “low toxicity”. As for `O=C(/C=C\n1cnc(-c2cc(C(F)(F)F)cc(C(F)(F)F)c2)n1)N1CC(F)(F)C1` [KPT-276], the “cytotoxicity over DMSO (MTT, viable cells)” value is listed as “toxic at high concentration”.

In a further data set the test system is HEK293 DNA-PK KO cells. As to the kind of experiment: HDR levels by GFP-to-BFP conversion assay in DNA-PK KO cells clone 22 treated with small molecule inhibitors. The class given is cell-based, human. The settings on record: 1 μM inhibitor added with Cas9, guide RNA and ssDNA encoding BFP; DNA-PK KO cells clone 22; drugs washed off 24 hours later. The method, then: Eighteen targets were targeted with 38 drugs. […] Small molecule inhibitors were added in the media simultaneously with the introduction of Cas9, guide RNA and single-stranded DNA (ssDNA) encoding BFP. HDR levels were measured with the BFP-to-GFP assay. […] Precise repair levels are shown as a % of BFP+ cells over DMSO.
DNA-PK KO cells were tested with the noted compounds at compounds at 10 μM, 5 μM, 1 μM, 0.5 μM, 0.1 μM, and 0.01 μM, as for FIGS. 4 and 6. HDR levels are shown as a % of BFP+ cells over DMSO 24 hours after drug treatment.
To study the efficiency of HDR in human cells we used the green fluorescent protein (GFP) to blue fluorescent protein (BFP) pair, where conversion from GFP to BFP requires editing of 2 nucleotides. The CRISPR screens were performed on a K562 human cell line stably expressing a green fluorescent protein (GFP). GFP was targeted with Cas9, guide RNA targeting GFP, and a single stranded DNA (ssDNA) encoding BFP. Efficiency of HDR in cells carrying specific genetic perturbations (genetic inhibition or activation) were identified using fluorescence-activated cell sorting (FACS), followed by guide RNA recovery and quantification using next-generation sequencing (NGS).
The small molecules were tested on DNA-PK knockout HET293 cells at concentrations of 10 μM or 1 μM. Eighteen targets were targeted with 38 drugs. […] Drug validations were performed in DNA-PK KO cells clone 22 treated with dimethyl sulfoxide (DMSO) or 1 or 10 μM of the indicated inhibitors. HDR levels were measured with the BFP-to-GFP assay. Small molecule inhibitors were added in the media simultaneously with the introduction of Cas9, guide RNA and single-stranded DNA (ssDNA) encoding BFP. The drugs were washed off 24 hours later.
The compounds shown in FIG. 6 were further tested for dose dependent effects. The same cells as described above were treated with the noted compounds at compounds at 10 μM, 5 μM, 1 μM, 0.5 μM, 0.1 μM, and 0.01 μM. HDR levels are shown as a % of BFP+ cells over DMSO 24 hours after drug treatment (FIG. 7).
As to `Cc1cc(OCc2nnc(SC3CCCC3)n2-c2cccnc2)ccc1-c1ccc(S(C)(=O)=O)cc1` [NMS-873], the “HDR levels (% of BFP+ cells over DMSO)” value is given as “increased HDR levels”.

In the case of `COc1cc(-c2cn(C)c(=O)c3cnccc23)cc(OC)c1CN(C)C` [BI-7273], the “HDR levels (% of BFP+ cells over DMSO)” value is “increased HDR levels”. `Cc1cc2c(C(N)=O)cccc2n1-c1nc2c(c(NCc3ccccc3)n1)COCC2` [CB-5083]: the “HDR levels (% of BFP+ cells over DMSO)” value was “increased HDR levels”. On to `NC(=O)/C(=C/n1cnc(-c2cc(C(F)(F)F)cc(C(F)(F)F)c2)n1)c1cncnc1` [Eltanexor (KPT-8602), Eltanexor], for which the “HDR levels (% of BFP+ cells over DMSO)” value is reported as “increased HDR levels”. With `O=C(O)c1ccc2cc(-c3ccc(O)c(C45CC6CC(CC(C6)C4)C5)c3)ccc2c1` [CD437], the “HDR levels (% of BFP+ cells over DMSO)” value was “increased HDR levels”.

With `CCn1cc(-c2cccc(C(F)(F)F)c2)c2sc(C(=N)NC3CCS(=O)(=O)CC3)cc2c1=O` [I-BRD9], the “HDR levels (% of BFP+ cells over DMSO)” value is recorded as “increased HDR levels”. On to `O=C(O)/C=C/c1ccc(-c2ccc(O)c(C34CC5CC(CC(C5)C3)C4)c2)cc1` [ST1926], for which the “HDR levels (% of BFP+ cells over DMSO)” value was “increased HDR levels”. `Nc1ncnc2c1c(COc1cccc(Cl)c1)nn2C1CCOCC1` [PF 4800567]: the “HDR levels (% of BFP+ cells over DMSO)” value was “increased HDR levels”.

On to `c1ccc(CNc2nc(NCc3ccccc3)c3ccccc3n2)cc1` [DBeQ], for which the “HDR levels (% of BFP+ cells over DMSO)” value was “increased HDR levels”. On the same count and under the same terms, to `COc1cc(Nc2ncc3c(n2)-c2ccc(Cl)cc2C(c2c(F)cccc2OC)=NC3)ccc1C(=O)O` [Alisertib] belongs “increased HDR levels”; to `COC(=O)[C@H](CCSC)NC(=O)c1ccc(NC[C@@H](N)CS)cc1-c1ccccc1.Cl` [FTI 277 HCl], “increased HDR levels”. Same read-out and setting: to `CO[C@@H]1[C@@H](OC(N)=O)[C@@H](O)[C@H](Oc2ccc3c(O)c(NC(=O)c4ccc(O)c(CC=C(C)C)c4)c(=O)oc3c2C)OC1(C)C` [Novobiocin] belongs “increased HDR levels”. On the same count and under the same terms, to `O=C(/C=C\n1cnc(-c2cc(C(F)(F)F)cc(C(F)(F)F)c2)n1)N1CC(F)(F)C1` [KPT-276] belongs “increased HDR levels”; to `CC(=O)Nc1nc(-c2cccc(NS(=O)(=O)c3cccc4c(N(C)C)cccc34)c2)cs1` [HA15], “increased HDR levels”; to `Nc1nccc(-c2c(-c3ccc(F)cc3)ncn2C2CCCCC2)n1` [PF-670462], “increased HDR levels”. For `Cc1nc(Nc2n[nH]c3c2CN(C(=O)N[C@H](CN(C)C)c2ccccc2)C3(C)C)c2sccc2n1` [PF-3758309], the “HDR levels (% of BFP+ cells over DMSO)” value was “increased HDR levels”. With `C=CC(=O)Nc1ccc(C(=O)Nc2n[nH]c3c2CN(C(=O)N[C@H](CN(C)C)c2ccccc2)C3(C)C)cc1` [YKL-5-124], the “HDR levels (% of BFP+ cells over DMSO)” value was “increased HDR levels”. For the compound `O=C(O)Cn1c2c(c3cc(F)ccc31)CN(C(=O)c1cccc3ccccc13)CC2` [Setipiprant], the “HDR levels (% of BFP+ cells over DMSO)” value is reported as “increased HDR levels”. Regarding `N#Cc1ccc(COC[C@H]2O[C@@H](n3c(NCc4ccc(Cl)c(Cl)c4)nc4c(N)ncnc43)[C@H](O)[C@@H]2O)cc1` [VER155008], the “HDR levels (% of BFP+ cells over DMSO)” value is “increased HDR levels”. Still for that read-out and setting: to `Cc1ncc(CCCN(C)C)cc1Nc1ncc2c(n1)-c1ccc(C(F)(F)F)cc1NC(=S)C2` [MLN0905] belongs “increased HDR levels”.

The same data set, now with this note: 10, 5, 1, 0.5, 0.1 and 0.01 μM; DNA-PK KO cells; 24 hours after drug treatment.
With `COc1ccc(CCNCc2ccc(OCc3ccc(Cl)nc3)c(OC)c2)cc1OC.Cl` [SBE 13 HCl], the “BFP+ increase over DMSO (dose dependent effect on HDR)” value is “dose-dependent increase in HDR”. For the compound `O=C(/C=C\n1cnc(-c2cc(C(F)(F)F)cc(C(F)(F)F)c2)n1)N1CC(F)(F)C1` [KPT-276], the “BFP+ increase over DMSO (dose dependent effect on HDR)” value is “promote HDR at low concentration”.

For the next data set, the system named is human K562 PRKDC−/− cells. In words: Precise repair (% BFP conversion) after SpCas9 RNP, EGFP-targeting sgRNA and EBFP ssODN nucleofection. Type of data set: cell-based. The following applies: 1 μM, DMSO control 56%. The method, then: To investigate the effect of combinatorial inhibition using a DNA-PK inhibitor and another inhibitor on HDR gene editing rates, human K562 PRKDC−/− cells (a DNA Knock Out cell line) were nucleofected with SpCas9 RNPs with an EGFP-targeting sgRNA and EBFP ssODN and then incubated with 1 μM (micro molar) concentration ST1926 (an inhibitor of POLA1) or DMSO treated (control). Gene editing rates are expressed in percentages and classified as % precise repair (% BFP conversion). The combination of ST1926 treatment in PRKDC-null human cells boosted precise editing from 56% to 73%.
As to `O=C(O)/C=C/c1ccc(-c2ccc(O)c(C34CC5CC(CC(C5)C3)C4)c2)cc1` [ST1926], the “% precise repair (% BFP conversion)” value stood at 73%.
